Assays:
[1] = tested on: MOLM13; assay: 7-day proliferation assay (WST-8), cell growth inhibition; assay type: cell-based; settings: Homo sapiens, MOLM-13, 168 h, MOLM13 cells, 7 days
How it was run: (§1)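 Cells seeded at 2,000-3,000/well were exposed to serially diluted compound for 7 days at 37° C., 5% CO2. Viability was read by WST-8 absorbance at 450 nm after 1-2 h color development; readings normalized to DMSO-treated cells, IC50 by four-parameter nonlinear regression.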

[2] = tested on: MV4-11; assay: as above; assay type: cell-based; settings: Homo sapiens, MV4-11, 168 h, MV4-11 cells, 7 days
How it was run: as §1

[3] = target: T1, menin protein (Homo sapiens, UniProt O00255); assay: Fluorescence polarization (FP) competitive binding assay, menin binding affinity; settings: FP competition with FAM-MM2 probe 2 nM, menin 4 nM, 30 minutes room temperature
T1 sequence (O00255 1-610): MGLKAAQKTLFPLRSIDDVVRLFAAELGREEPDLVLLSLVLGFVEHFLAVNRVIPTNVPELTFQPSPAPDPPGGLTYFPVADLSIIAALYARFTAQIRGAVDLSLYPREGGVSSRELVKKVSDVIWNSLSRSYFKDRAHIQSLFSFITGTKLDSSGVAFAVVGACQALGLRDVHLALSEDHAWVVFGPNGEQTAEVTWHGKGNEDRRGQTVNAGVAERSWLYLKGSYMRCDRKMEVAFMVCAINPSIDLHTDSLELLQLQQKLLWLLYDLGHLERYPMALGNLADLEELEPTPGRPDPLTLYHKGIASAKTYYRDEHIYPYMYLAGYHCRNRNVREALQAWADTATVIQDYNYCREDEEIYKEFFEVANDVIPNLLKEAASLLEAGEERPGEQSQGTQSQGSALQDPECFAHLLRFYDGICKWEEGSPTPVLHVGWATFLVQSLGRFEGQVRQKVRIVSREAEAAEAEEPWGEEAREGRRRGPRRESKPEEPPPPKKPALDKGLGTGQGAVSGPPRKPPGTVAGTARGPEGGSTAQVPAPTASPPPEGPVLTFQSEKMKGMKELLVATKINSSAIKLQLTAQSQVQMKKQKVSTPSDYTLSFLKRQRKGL
Protocol: A fluorescence polarization (FP) competitive binding assay was used to determine the binding affinities of representative menin inhibitors. A FAM labeled fluorescent probe was designed and synthesized based on a MLL1 peptide (FAM-MM2). Equilibrium dissociation constant (Kd) value of FAM-MM2 to menin protein was determined from protein saturation experiments by monitoring the total fluorescence polarization of mixtures composed with the fluorescent probe at a fixed concentration and the protein with increasing concentrations up to full saturation. Serial dilutions of the protein were mixed with FAM-MM2 to a final volume of 200 μl in the assay buffer (PBS with 0.02% Bovine γ-Globulin and 4% DMSO. 0.01% Triton X-100 was added right before assays). Final FAM-MM2 concentration was 2 nM. Plates were incubated at room temperature for 30 minutes with gentle shaking to assure equilibrium. FP values in millipolarization units (mP) were measured using the Infinite M-1000 plate reader (Tecan U.S., Research Triangle Park, N.C.) in Microfluor 1 96-well, black, v-bottom plates (Thermo Scientific, Waltham, Mass.) at an excitation wavelength of 485 nm and an emission wavelength of 530 nm.
The IC50 of representative Compounds of the Disclosure, see Table 3, were determined in a competitive binding experiment. Mixtures of 5 μl of the tested compounds in DMSO and 195 μl of preincubated protein/probe complex solution in the assay buffer were added into assay plates which were incubated at room temperature for 30 minutes with gentle shaking. Final concentration of the menin protein was 4 nM, and final probe concentration is 2 nM. Negative controls containing protein/probe complex only (equivalent to 0% inhibition), and positive controls containing only free probes (equivalent to 100% inhibition), were included in each assay plate. FP values were measured as described above. IC50 values were determined by nonlinear regression fitting of the competition curves.

SMILES	IC50 [1] [nM]	IC50 [2] [nM]	IC50 [3] [µM]
C=CC(=O)N1CCc2ccc(S(=O)(=O)c3ccc(N4CC(F)(CN5CCC([C@@](CN6CCC6)(c6cccc(F)c6)[C@H]6CCC[C@@H]6NC(=O)OC)CC5)C4)c(F)c3)cc21 [compound 126]	< 1000	< 500	–
C=CC(=O)N1CCOC[C@@H](S(=O)(=O)c2ccc(N3CC(C)(CN4CCC([C@@](CNC(=O)OC)(c5cccc(F)c5)[C@H]5CCC[C@@H]5NC(=O)OC)CC4)C3)c(F)c2)C1 [compound 181]	< 500	< 50	–
C=CC(=O)N1CC(S(=O)(=O)c2ccc(N3CC(CN4CCC([C@@](CNC(C)=O)(c5cccc(F)c5)[C@H]5CCC[C@@H]5NC(=O)OC)CC4)C3)cc2CN2CC(F)C2)C1 [compound 176]	< 50	< 50	–
CC#CC(=O)N1CC(S(=O)(=O)c2ccc(N3CC(F)(CN4CCC([C@@](CN5CCC5)(c5cccc(F)c5)[C@H]5CCC[C@@H]5NC(=O)OC)CC4)C3)c(F)c2)C1 [compound 102]	< 50	< 10	–
C=CC(=O)Nc1cc(S(=O)(=O)c2ccc(N3CC(F)(CN4CCC([C@@](CN5CCC5)(c5cccc(F)c5)[C@H]5CCC[C@@H]5NC(=O)OC)CC4)C3)c(F)c2)ccc1OC [compound 92]	< 50	< 10	–
C=CC(=O)Nc1cc(N(C)CCN(C)C)cc(S(=O)(=O)c2ccc(N3CC(CN4CCC([C@@](CN5CCC5)(c5cccc(F)c5)[C@H]5CCC[C@@H]5NC(=O)OC)CC4)C3)cc2)c1 [compound 75]	< 50	< 10	–
C=CC(=O)Nc1cc(S(=O)(=O)c2ccc(N3CC(F)(CN4CCC([C@@](CN5CCC5)(c5cccc(F)c5)[C@H]5CCC[C@@H]5NC(=O)OC)CC4)C3)cc2)ccn1 [compound 82]	< 100	< 10	–
C=CC(=O)Nc1cccc(S(=O)(=O)c2ccc(N3CC(F)(CN4CCC([C@@](CN5CCC5)(c5cccc(F)c5)[C@H]5CCC[C@@H]5NC(=O)OC)CC4)C3)cc2)n1 [compound 85]	< 500	< 500	–
C=CC(=O)N1CCOC[C@@H](S(=O)(=O)c2ccc(N3CC(CN4CCC([C@@](CNC(=O)OC)(c5cccc(F)c5)[C@H]5CCC[C@@H]5NC(=O)OC)CC4)C3)c(F)c2)C1 [compound 179]	< 100	< 50	–
C=CC(=O)N1CC(S(=O)(=O)c2ccc(N3CC(F)(CN4CCC([C@@](CNC(C)=O)(c5cccc(F)c5)[C@H]5CCC[C@@H]5NC(=O)OC)CC4)C3)cc2CN2CC(F)C2)C1 [compound 177]	< 500	< 100	–
C=CC(=O)N1CCC[C@@H](S(=O)(=O)c2ccc(N3CC(CN4CCC([C@@](CNC(C)=O)(c5cccc(F)c5)[C@H]5CCC[C@@H]5NC(=O)OC)CC4)C3)cc2)C1 [compound 199]	< 50	< 50	–
COC(=O)N[C@H]1CCC[C@@H]1[C@](CN1CCC1)(c1cccc(F)c1)C1CCN(CC2(F)CN(c3ccc(S(=O)(=O)C4CN(C(=O)/C=C/CN5CCCCC5)C4)cc3F)C2)CC1 [compound 94]	< 50	< 10	–
C=CC(=O)N1CCCC(S(=O)(=O)c2ccc(N3CC(F)(CN4CCC([C@@](CN5CCC5)(c5cccc(F)c5)[C@H]5CCC[C@@H]5NC(=O)OC)CC4)C3)cc2)C1 (stereo partly shown) [compound 112]	< 50	< 50	–
C=CC(=O)Nc1cc(F)cc(S(=O)(=O)c2ccc(N3CC(CN4CCC([C@@](CN5CCC5)(c5cccc(F)c5)[C@H]5CCC[C@@H]5NC(=O)OC)CC4)C3)cc2)c1 [compound 72]	< 50	< 10	–
COC(=O)N[C@H]1CCC[C@@H]1[C@](CN1CCC1)(c1cccc(F)c1)C1CCN(CC2(F)CN(c3ccc(S(=O)(=O)C4CN(C(=O)/C=C/CN5CCCCC5)C4)cc3)C2)CC1 [compound 95]	< 50	< 10	–
C=CC(=O)N1CCC[C@@H](S(=O)(=O)c2ccc(N3CC(O)(CN4CCC([C@@](CNC(C)=O)(c5cccc(F)c5)[C@H]5CCC[C@@H]5NC(=O)OC)CC4)C3)cc2)C1 [compound 205]	< 500	< 500	–
C=CC(=O)N1CCOC[C@@H](S(=O)(=O)c2ccc(N3CC(C)(CN4CCC([C@@](Cn5ccnn5)(c5cccc(F)c5)[C@H]5CCC[C@@H]5NC(=O)OC)CC4)C3)c(F)c2)C1 [compound 185]	< 1000	< 100	–
C=CC(=O)N1CCOC[C@@H](S(=O)(=O)c2ccc(N3CC(C)(CN4CCC([C@@](CN5CCC5)(c5cccc(F)c5)[C@H]5CCC[C@@H]5NC(=O)OC)CC4)C3)cc2)C1 [compound 214]	< 500	< 500	–
C=CC(=O)N1CCC[C@@H](S(=O)(=O)c2ccc(N3CC(CN4CCC([C@@](CN5CCC5)(c5cccc(F)c5)[C@H]5CCC[C@@H]5NC(=O)OC)CC4)(OC)C3)cc2)C1 [compound 212]	< 100	< 50	–
C=CC(=O)N1CCCC[C@@H](S(=O)(=O)c2ccc(N3CC(CN4CCC([C@@](CNC(=O)OC)(c5cccc(F)c5)[C@H]5CCC[C@@H]5NC(=O)OC)CC4)C3)c(F)c2)C1 [compound 186]	< 50	< 50	–
COC(=O)N[C@H]1CCC[C@@H]1[C@](CN1CCC1)(c1cccc(F)c1)C1CCN(CC2CN(c3ccc(S(=O)(=O)C4CN(C(=O)/C=C/CN5CCOCC5)C4)cc3)C2)CC1 [Cpd. No. 25, methyl ((1S,2R)-2-((S)-2-(azetidin-1-yl)-1-(3-fluorophenyl)-1-(1-((1-(4-((1-((E)-4-morpholinobut-2-enoyl)azetidin-3-yl)sulfonyl)phenyl)azetidin-3-yl)methyl)piperidin-4-yl)ethyl)cyclopentyl)carbamate]	–	< 10	0.007
CC#CC(=O)N1CC[C@@H](S(=O)(=O)c2ccc(N3CC(O)(CN4CCC([C@@](CNC(C)=O)(c5cccc(F)c5)[C@H]5CCC[C@@H]5NC(=O)OC)CC4)C3)c(F)c2)C1 [compound 206]	–	< 50	0.002
C=C(CN1CCOCC1)C(=O)N1CC(S(=O)(=O)c2ccc(N3CC(CN4CCC([C@@](CN5CCC5)(c5cccc(F)c5)[C@H]5CCC[C@@H]5NC(=O)OC)CC4)C3)cc2)C1 [Cpd. No. 9, methyl ((1S,2R)-2-((S)-2-(azetidin-1-yl)-1-(3-fluorophenyl)-1-(1-((1-(4-((1-(2-(morpholinomethyl)acryloyl)azetidin-3-yl)sulfonyl)phenyl)azetidin-3-yl)methyl)piperidin-4-yl)ethyl)cyclopentyl)carbamate]	–	< 10	0.002
COC(=O)N[C@H]1CCC[C@@H]1[C@](CN1CCC1)(c1cccc(F)c1)C1CCN(CC2CN(c3ccc(C(F)(F)C4CN(C(=O)/C=C/CN5CCCCC5)C4)cc3)C2)CC1 [compound 71]	–	< 50	0.002
C=C(CN1CCC1)C(=O)N1CC(S(=O)(=O)c2ccc(N3CC(CN4CCC([C@@](CN5CCC5)(c5cccc(F)c5)[C@H]5CCC[C@@H]5NC(=O)OC)CC4)C3)cc2)C1 [Cpd. No. 22, methyl ((1S,2R)-2-((S)-2-(azetidin-1-yl)-1-(1-((1-(4-((1-(2-(azetidin-1-ylmethyl)acryloyl)azetidin-3-yl)sulfonyl)phenyl)azetidin-3-yl)methyl)piperidin-4-yl)-1-(3-fluorophenyl)ethyl)cyclopentyl)carbamate]	–	< 10	0.002
COC(=O)N[C@H]1CCC[C@@H]1[C@](CN1CCC1)(c1cccc(F)c1)C1CCN(CC2CN(c3ccc(S(=O)(=O)C4CN(C(=O)/C=C/CN5CCC5)C4)cc3)C2)CC1 [Cpd. No. 173, Methyl ((1S,2R)-2-((S)-2-(azetidin-1-yl)-1-(1-((1-(4-((1-((E)-4-(azetidin-1-yl)but-2-enoyl)azetidin-3-yl)sulfonyl)phenyl)azetidin-3-yl)methyl)piperidin-4-yl)-1-(3-fluorophenyl)ethyl)cyclopentyl)carbamate]	–	< 10	0.002

Source: US20210115018A1, “PIPERIDINE COMPOUNDS AS COVALENT MENIN INHIBITORS” (THE REGENTS OF THE UNIVERSITY OF MICHIGAN, priority 2018, published 2021)
